# Data published in patent US6643591B1, “Use of computational and experimental data to model organic compound reactivity in cytochrome P450 mediated reactions and to optimize the design of pharmaceuticals” (University of Pittsburgh, priority 1998, dated 2003).
# Assays:
# [1] = biological target: T1, CYP2C8 (Homo sapiens, UniProt P10632); assay: in vitro; settings: pH 7.4
# T1 sequence (P10632 1-490): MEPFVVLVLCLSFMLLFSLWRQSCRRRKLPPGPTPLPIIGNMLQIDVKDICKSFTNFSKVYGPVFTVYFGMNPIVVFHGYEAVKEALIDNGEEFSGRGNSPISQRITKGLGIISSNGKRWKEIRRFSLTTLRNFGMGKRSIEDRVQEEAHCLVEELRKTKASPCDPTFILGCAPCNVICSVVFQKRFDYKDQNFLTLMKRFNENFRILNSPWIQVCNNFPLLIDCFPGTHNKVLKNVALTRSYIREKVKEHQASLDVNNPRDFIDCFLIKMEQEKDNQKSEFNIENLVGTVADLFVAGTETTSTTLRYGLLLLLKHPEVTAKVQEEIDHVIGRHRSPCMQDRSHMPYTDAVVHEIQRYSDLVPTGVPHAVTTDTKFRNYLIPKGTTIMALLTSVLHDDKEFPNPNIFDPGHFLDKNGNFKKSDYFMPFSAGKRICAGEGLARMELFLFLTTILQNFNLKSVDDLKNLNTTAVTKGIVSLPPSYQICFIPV
# [2] = biological target: T2, CYP2B6 (Homo sapiens, UniProt P20813); assay: in vitro
# T2 sequence (P20813 1-491): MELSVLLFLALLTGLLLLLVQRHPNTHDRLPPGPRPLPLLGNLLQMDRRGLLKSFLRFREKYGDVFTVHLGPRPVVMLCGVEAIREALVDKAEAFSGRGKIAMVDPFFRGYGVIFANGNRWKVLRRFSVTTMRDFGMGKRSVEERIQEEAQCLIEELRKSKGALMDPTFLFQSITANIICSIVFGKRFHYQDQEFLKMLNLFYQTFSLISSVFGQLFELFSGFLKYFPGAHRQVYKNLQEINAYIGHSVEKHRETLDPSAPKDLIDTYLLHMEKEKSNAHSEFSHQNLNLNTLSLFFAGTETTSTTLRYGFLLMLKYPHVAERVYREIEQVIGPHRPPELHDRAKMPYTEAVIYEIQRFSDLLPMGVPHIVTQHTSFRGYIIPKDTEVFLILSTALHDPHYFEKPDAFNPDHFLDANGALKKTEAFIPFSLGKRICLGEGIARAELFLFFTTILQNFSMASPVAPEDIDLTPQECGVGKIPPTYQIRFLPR
# [3] = biological target: CYP3A4 (Homo sapiens, UniProt P08684); assay: Regioselectivity and inter-/intramolecular KIE for 4-methylanisole (Table 15); type: in vitro ADME
# Chain of CYP3A4 (P08684 whole entry): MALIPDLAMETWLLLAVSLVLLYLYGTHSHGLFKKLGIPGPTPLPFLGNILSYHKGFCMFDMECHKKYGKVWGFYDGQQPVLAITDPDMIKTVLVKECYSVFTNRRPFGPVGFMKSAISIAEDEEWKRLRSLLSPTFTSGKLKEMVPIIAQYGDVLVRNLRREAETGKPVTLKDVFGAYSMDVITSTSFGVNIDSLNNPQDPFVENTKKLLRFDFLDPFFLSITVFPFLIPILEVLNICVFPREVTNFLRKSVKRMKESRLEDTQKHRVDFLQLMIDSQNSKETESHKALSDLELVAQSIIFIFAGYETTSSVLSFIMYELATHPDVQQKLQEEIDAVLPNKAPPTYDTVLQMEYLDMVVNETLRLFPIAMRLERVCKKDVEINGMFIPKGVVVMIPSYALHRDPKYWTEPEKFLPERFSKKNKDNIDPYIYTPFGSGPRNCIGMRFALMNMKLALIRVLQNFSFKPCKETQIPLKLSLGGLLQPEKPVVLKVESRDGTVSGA
# [4] = biological target: T3, CYP1A2 (Homo sapiens, UniProt P05177); assay: as above; type: in vitro ADME
# T3 sequence (P05177 1-516): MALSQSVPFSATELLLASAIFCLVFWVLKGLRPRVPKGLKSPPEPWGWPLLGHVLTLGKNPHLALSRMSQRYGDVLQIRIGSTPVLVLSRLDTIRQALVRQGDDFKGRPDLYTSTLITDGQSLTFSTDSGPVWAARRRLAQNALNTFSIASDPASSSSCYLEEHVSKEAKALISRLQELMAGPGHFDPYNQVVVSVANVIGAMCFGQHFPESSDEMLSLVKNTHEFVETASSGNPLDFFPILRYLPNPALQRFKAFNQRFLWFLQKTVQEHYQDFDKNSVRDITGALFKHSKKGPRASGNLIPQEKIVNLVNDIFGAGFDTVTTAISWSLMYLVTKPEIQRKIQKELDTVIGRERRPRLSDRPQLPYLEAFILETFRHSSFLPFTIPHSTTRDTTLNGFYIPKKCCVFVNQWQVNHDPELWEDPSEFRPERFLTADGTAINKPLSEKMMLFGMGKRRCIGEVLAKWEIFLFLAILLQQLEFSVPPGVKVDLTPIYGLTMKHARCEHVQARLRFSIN
# [5] = biological target: T4, CYP1A1 (Homo sapiens, UniProt P04798)
# T4 sequence (P04798 1-512): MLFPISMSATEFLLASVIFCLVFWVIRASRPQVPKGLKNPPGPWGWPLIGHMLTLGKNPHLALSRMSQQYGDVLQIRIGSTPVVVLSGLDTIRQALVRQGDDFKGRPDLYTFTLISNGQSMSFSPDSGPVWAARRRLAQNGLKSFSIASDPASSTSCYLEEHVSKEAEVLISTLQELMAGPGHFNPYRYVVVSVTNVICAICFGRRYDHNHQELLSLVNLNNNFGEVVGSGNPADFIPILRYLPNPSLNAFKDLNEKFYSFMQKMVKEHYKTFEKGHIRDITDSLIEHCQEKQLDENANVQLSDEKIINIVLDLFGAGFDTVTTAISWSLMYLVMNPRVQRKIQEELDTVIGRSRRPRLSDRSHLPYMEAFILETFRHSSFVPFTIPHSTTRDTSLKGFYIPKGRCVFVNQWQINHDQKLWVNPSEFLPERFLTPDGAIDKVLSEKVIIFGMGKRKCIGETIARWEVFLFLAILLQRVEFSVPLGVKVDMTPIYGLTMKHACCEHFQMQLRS
# [6] = biological target: T5, P450cam (Pseudomonas putida, UniProt P00183); assay: Intramolecular isotope effects with purified P450cam; type: in vitro ADME, bacterial; settings: benzylic hydroxylation, -CH2D (d1) substrate
# T5 construct: made in house
# T5 sequence (P00183 2-415): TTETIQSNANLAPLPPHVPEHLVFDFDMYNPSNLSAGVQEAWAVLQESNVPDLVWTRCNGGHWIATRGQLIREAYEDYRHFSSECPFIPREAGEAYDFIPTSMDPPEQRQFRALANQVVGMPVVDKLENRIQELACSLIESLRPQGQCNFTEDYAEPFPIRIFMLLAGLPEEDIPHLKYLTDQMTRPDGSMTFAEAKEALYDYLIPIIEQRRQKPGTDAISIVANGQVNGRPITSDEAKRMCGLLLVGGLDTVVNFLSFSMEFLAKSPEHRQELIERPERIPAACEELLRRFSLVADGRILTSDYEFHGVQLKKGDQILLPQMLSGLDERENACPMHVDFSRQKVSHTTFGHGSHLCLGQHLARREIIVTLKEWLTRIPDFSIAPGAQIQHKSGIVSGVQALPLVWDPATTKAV
# Experimental: For the intramolecular isotope effect experiments herein, a substrate is chosen that contains at least two symmetrical sites, with at least one site, but not all, isotopically labeled. A single concentration of substrate is incubated with enzyme, and the ratio of labeled to unlabeled compound in the isotopic mixture of products (or the corresponding rates of formation of products) are used to calculate a KIE.
# Construction of expression plasmids for P450cam, Pd, and PdR as well as protein expression and purification have been described previously (Shimoji et al. (1998) Biochemistry 37, 8848-52).
# Enzyme incubations with monodeuterated toluenes and p-xylene-α-^2H1-α′-^2H1 were performed in triplicate at a single substrate concentration of 0.25 mM. […] The kinetic parameters for metabolism of the substituted toluenes were determined by GC-MS analysis of the M-(dimethylsilyl) derivative of the product benzyl alcohols (see below).
# [7] = biological target: CYP2E1 (Homo sapiens, UniProt P05181); assay: Regioselectivity and inter-/intramolecular KIE for 4-methylanisole (Table 15); type: in vitro ADME
# Chain of CYP2E1 (P05181 whole entry): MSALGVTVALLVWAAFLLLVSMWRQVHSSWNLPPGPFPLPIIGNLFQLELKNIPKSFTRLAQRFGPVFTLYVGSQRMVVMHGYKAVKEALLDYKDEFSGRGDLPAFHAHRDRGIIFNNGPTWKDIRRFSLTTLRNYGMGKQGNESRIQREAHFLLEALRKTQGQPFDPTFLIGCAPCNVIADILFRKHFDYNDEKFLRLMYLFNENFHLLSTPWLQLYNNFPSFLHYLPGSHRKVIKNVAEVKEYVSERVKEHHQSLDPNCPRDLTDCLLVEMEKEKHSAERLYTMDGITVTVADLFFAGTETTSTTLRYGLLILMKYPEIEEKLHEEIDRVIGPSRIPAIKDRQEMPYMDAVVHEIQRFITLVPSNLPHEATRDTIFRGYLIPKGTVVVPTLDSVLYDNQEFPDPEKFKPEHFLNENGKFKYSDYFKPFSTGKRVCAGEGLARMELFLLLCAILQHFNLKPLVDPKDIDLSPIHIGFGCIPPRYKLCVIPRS
# [8] = system: various CYP enzymes; settings: mean over seven enzymes
SMILES,selectivity ratio [1],"selectivity ratio ([2]; pH 7.4, Regioselectivity BzH:Arom)","selectivity ratio ([2]; pH 7.4, Regioselectivity BzH:ODAlk)",Intermolecular KIE ([3]; CYP3A4 (Table 15)),Intramolecular KIE ([3]; CYP3A4 (Table 15)),"δΔG^† ([3]; CYP3A4, benzylic oxidation vs O-dealkylation) [kcal/mol]",Intermolecular KIE ([4]; CYP1A2 (Table 15)),Intramolecular KIE ([4]; CYP1A2 (Table 15)),"δΔG^† ([4]; CYP1A2, benzylic oxidation vs O-dealkylation) [kcal/mol]",Intermolecular KIE ([5]; CYP1A1 (Table 15)),Intramolecular KIE ([5]; CYP1A1 (Table 15)),"δΔG^† ([5]; CYP1A1, benzylic oxidation vs O-dealkylation) [kcal/mol]",Intramolecular KIE (kH/kD) [6],Intermolecular KIE ([7]; CYP2E1 (Table 15)),Intramolecular KIE ([7]; CYP2E1 (Table 15)),"δΔG^† ([7]; CYP2E1, benzylic oxidation vs O-dealkylation) [kcal/mol]","Benzylic/O-Dealkylation, Mean [8]","Intermolecular KIE, Mean [8]","Intramolecular KIE, Mean [8]"
"COc1ccccc1C [o-Methylanisole, o-methylanisole]",1,2,0.52,–,–,–,–,–,–,–,–,–,–,–,–,–,–,–,–
"COc1ccc(C)cc1 [p-Methylanisole, p-methylanisole]",–,–,–,2.76,5.27,1.61,5.94,3.79,1.82,2.17,4.23,1.12,4.44,6.53,4.02,1.06,10.60 (5.85),4.59,4.20
